Experimental data from paper PMC3938723, “Learning from Host-Defense Peptides: Cationic, Amphipathic Peptoids with Potent Anticancer Activity” (PLoS ONE, 2014).
Non-standard residues stand in square brackets, D forms with d. Residues, ends and D or L forms follow the SMILES beside them. Nspe = C[C@H](NCC(=O)O)c1ccccc1; Nlys = NCCCCNCC(=O)O

Columns and labels:
LNCaP (prostate cancer) = test: MTS cell viability assay, LNCaP; assay type: cell-based; conditions: 72 h
Experimental: This assay is a colorimetric method for determining the number of viable cells in proliferation. Aliquots of 100 µl media containing 1×10^4 cells were distributed into each well of a 96-well plate (BD Falcon). The following day, when cell density reaches about ∼40% confluency, the cell media were removed and replaced with serial dilutions of peptoid stocks in culturing media. For peptoid dilutions, peptoid stocks were initially diluted in media at 100 µM and then diluted by half in series using a multichannel pipette, and maintained in 100 µl media for each concentration with triple repeats. After peptoid solutions were transferred onto cells in 96-well plates, cells were incubated at 37°C for certain time periods. Then 20 µl of the CellTiter 96 Aqueous Non-Radioactive cell proliferation assay (Promega) reagent which contains a tetrazolium compound, [3-(4,5-dimethylthiazol-2-yl)-5-(3-carboxymethoxyphenyl)-2-(4-sulfophenyl)-2H-tetrazolium, inner salt; MTS(a)], was added to each well and cells were further incubated for 2 h to metabolize. The absorbance of formazan products were measured at 490 nm in a microplate reader (Molecular Devices). Percentage of cell viability = (A -A testblank)/(A control -A blank)×100, where A is the absorbance of the test well and A control the average absorbance of wells with cells not treated with peptoids. A testblank (media, MTS, and diluted peptoids) and A blank (media and MTS) were background absorbances measured in the absence of cells.
The activity and selectivity of these peptoids against cancer cells were evaluated in vitro. Their cytotoxicity was tested in three cancer cell lines, MCF-7 (human breast cancer), LNCaP (human prostate cancer), and OVCAR-3 (human ovarian cancer). To estimate the selectivity of these peptoids in vitro, hemolytic activities of some peptoids were cited from previously published work (Table 2 **column), and the MRC-5 cell line (human fibroblasts derived from fetal lung tissues) and primary dermal fibroblasts were also tested as normal cell controls. Briefly, cells were treated with peptoids diluted in culturing media for certain time periods, and then cell viability was measured via MTS assays.

[1] = Analytical RP-HPLC elution as relative measure of molecular hydrophobicity; assay type: physicochemical; conditions: percentage of acetonitrile at elution, analytic RP-HPLC, C18 column, linear water/acetonitrile (0.1% trifluoroacetic acid) gradient 5%-95% acetonitrile over 30 min
From the text: Peptoids were synthesized using an ABI 433A peptide synthesizer (Applied Biosystems, Inc.) on Rink amide MBHA resin (EMD Biosciences, Gibbstown, NJ) using the submonomer protocol, [24]. Briefly, the amine on the nascent chain is bromoacetylated or chloroacetylated followed by SN2 displacement of bromide or chloride by a primary amine to form the side chain. Resin-bound peptoids were then exposed to a mixture of trifluoroacetic acid (TFA): triisopropylsilane: water (95∶2.5∶2.5, volume ratio) for 10 minutes to cleave peptoids from the resin. Crude peptoids were purified by reversed-phase high performance liquid chromatography (RP-HPLC) (Waters Corporation) using a C18 column and a linear acetonitrile/water gradient. A final purity >95% as measured by analytical RP-HPLC (Waters Corporation) was achieved, and the identity of each peptoid was confirmed using electrospray ionization mass spectrometry (ESI/MS). Pexiganan was synthesized by standard Fmoc chemistry on an ABI 433A peptide synthesizer ([…]). Unless indicated otherwise, all reagents were purchased from Sigma Aldrich (St. Louis, MO). Among the submonomers used, Nspe was derived from (S)-N-(1-phenylethyl)amine; Npm from benzylamine ([…]); NHis from histamine (2-[4-imidazolyl]ethylamine); NLeu from isobutylamine; NLys from N-tert-butoxycarbonyl-1,4-butanediamine (CNH Technologies, MA). Guanidinylation of NLys was carried out according to the reported procedure. When NHis was used in the peptoid sequence, chloroacetic acid was used. 5(6)-Carboxyfluorescein was used to label the N-terminus of peptoid 1 [28].
Peptoids were utilized herein as a peptidomimetic scaffold to capture the cationic, amphipathic nature of anticancer peptides, as well as to improve molecular stability and to increase chemical diversity. The design of anticancer peptoids were derived from previous antimicrobial peptoids and were further optimized hererin to improve the activity and selectivity of peptoids against anionic membranes, [24], [25]. […] Several novel variants were designed based on peptoid 1 but with different charges, amphipathicity, length, and helicity to change their activity or selectivity. The sequences of these variants, the solvent composition at RP-HPLC elution as a relative measure of molecular hydrophobicity, molecular net charges and their charge-to-length ratio are summarized in Table 1. […] Pexiganan, a clinically-relevant peptide analog of magainin 2 which was developed for topical treatment for diabetic foot infection, and LL-37, the only known human cathelicidin which is a non-selective antimicrobial peptide, were also tested for comparison.

## C[C@@H](c1ccccc1)N(CC(N)=O)C(=O)CN(C(=O)CN(CCCCN)C(=O)CN(C(=O)CN(C(=O)CN(CCCCN)C(=O)CN(C(=O)CN(C(=O)CN(CCCCN)C(=O)CN(C(=O)CN(C(=O)CNCCCCN)[C@@H](C)c1ccccc1)[C@@H](C)c1ccccc1)[C@@H](C)c1ccccc1)[C@@H](C)c1ccccc1)[C@@H](C)c1ccccc1)[C@@H](C)c1ccccc1)[C@@H](C)c1ccccc1 [Peptoid 1, H-(NLys-Nspe-Nspe)4-NH2] (H-[Nlys][Nspe][Nspe][Nlys][Nspe][Nspe][Nlys][Nspe][Nspe][Nlys][Nspe][Nspe]-NH2)
LNCaP (prostate cancer)
  LC50 LNCaP (prostate cancer): 5 µM
[1]
  HPLC elution: 65.1 % ACN
